According to PubChem BioAssay AID330 (DTP/NCI, 2004):
Where “and” joins values, the source holds several entries; their conditions need not be identical. Identical values can stand only once. Inconclusive results and toxic doses are left out.

Tested on: P388 leukemia ip, CD2F1 mice, survival T/C
Assay: NCI In Vivo Anticancer Drug Screen. Data for tumor model P388 Leukemia (intraperitoneal) in CD2F1 (CDF1) mice
Settings: endpoint: median survival time, higher = longer survival
Procedure, shortened: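 Mice carrying the transplanted tumor received test compound or vehicle. Survival was recorded in each group, and the value is the treated-group measurement divided by that of the vehicle-treated control group.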

[1] = dose: 100.0 mg/kg/injection, schedule: Q01DX001 (ip), vehicle: Klucel (hydroxypropylcellulose) (HPC)
[2] = dose: 200.0 mg/kg/injection, schedule: Q01DX001 (ip), vehicle: Klucel (hydroxypropylcellulose) (HPC)
[3] = dose: 60.0 mg/kg/injection, schedule: Q01DX005 (ip), vehicle: saline with Tween-80
[4] = dose: 120.0 mg/kg/injection, schedule: Q01DX005 (ip), vehicle: saline with Tween-80
[5] = dose: 240.0 mg/kg/injection, schedule: Q01DX005 (ip), vehicle: saline with Tween-80

Question: Which results are given for `O=C(Nc1ccc(C2=NCC(O)CN2)cc1)c1ccc(C(=O)Nc2ccc(C3=NCC(O)CN3)cc2)cc1` (stereo unspecified)?
Answer: T/C (dose: 1.56 mg/kg/injection, schedule: Q01DX005 (ip), vehicle: saline with Tween-80): 122 % of control; T/C (dose: 6.25 mg/kg/injection, schedule: Q01DX005 (ip), vehicle: saline with Tween-80): 155 % of control

Question: Which T/C [1] does the source give for `COC1=CC(=O)c2cc3ccc(OC)c(N)c3nc2C1=O` here?
Answer: 100 % of control

Question: What about the T/C [2] of the same molecule?
Answer: 102 % of control

Question: With `O=C1c2ccccc2C(=O)N1c1ccc(C(F)(F)F)cc1[N+](=O)[O-]` as the molecule, how does the T/C (dose: 100.0 mg/kg/injection, schedule: Q04DX003 (ip), vehicle: saline) read?
Answer: 91 % of control

Question: And the T/C (dose: 200.0 mg/kg/injection, schedule: Q04DX003 (ip), vehicle: saline)?
Answer: 100 % of control

Question: What about the T/C (dose: 400.0 mg/kg/injection, schedule: Q04DX003 (ip), vehicle: saline) of the same molecule?
Answer: 93 % of control

Question: How did the T/C [3] turn out when `COc1ccc(C(CNC(=O)Cc2ccc(Oc3cc(CC(=O)NCC(OC)c4ccc(OC)c(OC)c4)ccc3OC)cc2)OC)cc1OC` (stereo unspecified) was run?
Answer: 94 % of control

Question: And the T/C [4]?
Answer: 86 % of control

Question: And the T/C [5]?
Answer: 92 % of control

Question: With `Cc1c2c(c(C)c3ccccc13)C(O)C(O)c1ccccc1-2` (stereo unspecified) as the molecule, how does the T/C [1] read?
Answer: 91 % of control

Question: What about the T/C [2] of the same molecule?
Answer: 91 % of control

Question: What about the T/C (dose: 400.0 mg/kg/injection, schedule: Q01DX001 (ip), vehicle: Klucel (hydroxypropylcellulose) (HPC)) of the same molecule?
Answer: 99 % of control

Question: `c1c2noc1CCCCCCCCC2` was tested. Which T/C (dose: 50.0 mg/kg/injection, schedule: Q01DX005 (ip), vehicle: Klucel (hydroxypropylcellulose) (HPC)) did it give?
Answer: 104 % of control

Question: What about the T/C (dose: 100.0 mg/kg/injection, schedule: Q01DX005 (ip), vehicle: Klucel (hydroxypropylcellulose) (HPC)) of the same molecule?
Answer: 110 % of control

Question: What about the T/C (dose: 200.0 mg/kg/injection, schedule: Q01DX005 (ip), vehicle: Klucel (hydroxypropylcellulose) (HPC)) of the same molecule?
Answer: 118 % of control

Question: For `Nn1cnc2c(ncn2C2OC(CO)C(O)C2O)c1=O` (stereo unspecified), which T/C (dose: 60.0 mg/kg/injection, schedule: Q01DX005 (ip), vehicle: Klucel (hydroxypropylcellulose) (HPC)) is on record?
Answer: 98 % of control

Question: What about the T/C (dose: 120.0 mg/kg/injection, schedule: Q01DX005 (ip), vehicle: Klucel (hydroxypropylcellulose) (HPC)) of the same molecule?
Answer: 99 % of control

Question: What about the T/C (dose: 240.0 mg/kg/injection, schedule: Q01DX005 (ip), vehicle: Klucel (hydroxypropylcellulose) (HPC)) of the same molecule?
Answer: 97 % of control

Question: How did the T/C (dose: 0.5 mg/kg/injection, schedule: Q04DX002 (ip), vehicle: saline with Tween-80) turn out when `COc1cc2c(c(OC)c1OC)-c1cc3c(cc1CC(CO)C(CO)C2)OCO3` (stereo unspecified) was run?
Answer: 101 % of control

Question: And the T/C (dose: 1.0 mg/kg/injection, schedule: Q04DX002 (ip), vehicle: saline with Tween-80)?
Answer: 106 % of control

Question: What about the T/C (dose: 2.0 mg/kg/injection, schedule: Q04DX002 (ip), vehicle: saline with Tween-80) of the same molecule?
Answer: 103 % of control

Question: `COC1(C)OC23C(=O)N(C)C(=O)N(C)C2(O1)N(C(C)=O)C(=O)N3C` (stereo unspecified) was tested. Which T/C (dose: 50.0 mg/kg/injection, schedule: Q01DX005 (ip), vehicle: saline with Tween-80) did it give?
Answer: 100 % of control

Question: And the T/C (dose: 100.0 mg/kg/injection, schedule: Q01DX005 (ip), vehicle: saline with Tween-80)?
Answer: 105 % of control

Question: What about the T/C (dose: 200.0 mg/kg/injection, schedule: Q01DX005 (ip), vehicle: saline with Tween-80) of the same molecule?
Answer: 98 % of control

Question: `C=C(Cl)C(=NC1CCCCC1)NC(C)(C)C` was tested. Which T/C (dose: 0.79 mg/kg/injection, schedule: Q01DX005 (ip), vehicle: Klucel (hydroxypropylcellulose) (HPC)) did it give?
Answer: 97 % of control

Question: What about the T/C (dose: 1.56 mg/kg/injection, schedule: Q01DX005 (ip), vehicle: Klucel (hydroxypropylcellulose) (HPC)) of the same molecule?
Answer: 101 % of control and 107 % of control

Question: What about the T/C (dose: 3.12 mg/kg/injection, schedule: Q01DX005 (ip), vehicle: Klucel (hydroxypropylcellulose) (HPC)) of the same molecule?
Answer: 104 % of control and 107 % of control and 109 % of control

Question: What about the T/C (dose: 6.25 mg/kg/injection, schedule: Q01DX005 (ip), vehicle: Klucel (hydroxypropylcellulose) (HPC)) of the same molecule?
Answer: 116 % of control

Question: And the T/C (dose: 12.5 mg/kg/injection, schedule: Q01DX005 (ip), vehicle: Klucel (hydroxypropylcellulose) (HPC))?
Answer: 110 % of control

Question: How did the T/C [3] turn out when `CC(C)(Cl)C1ON1C(C)(C)C` (stereo unspecified) was run?
Answer: 107 % of control

Question: And the T/C [4]?
Answer: 107 % of control

Question: And the T/C [5]?
Answer: 108 % of control

Question: What does the source list for `COc1cc(Cc2ccc3c(c2)OCO3)cc(OC)c1OC`?
Answer: T/C (dose: 100.0 mg/kg/injection, schedule: Q01DX001 (ip), vehicle: saline): 102 % of control; T/C (dose: 200.0 mg/kg/injection, schedule: Q01DX001 (ip), vehicle: saline): 102 % of control; T/C (dose: 400.0 mg/kg/injection, schedule: Q01DX001 (ip), vehicle: saline): 99 % of control
